# Laboratory results reported in US11439641B2, “Pyrimidine JAK inhibitors for the treatment of skin diseases” (THERAVANCE BIOPHARMA R&D IP, LLC, priority 2019, dated 2022).
# Legend:
# [1] = target: JAK1 (Homo sapiens (Human), UniProt P23458); assay: Biochemical JAK and Tyk2 Kinase Assays (LanthaScreen), JAK1; conditions: 25 μM ATP (Km); pIC50 converted to pKi by Cheng-Prusoff
# Protocol: (§1) Assay 1: Biochemical JAK and Tyk2 Kinase Assays
# (§2) A panel of four LanthaScreen JAK biochemical assays (JAK1, 2, 3 and Tyk2) were carried in a common kinase reaction buffer (50 mM HEPES, pH 7.5, 0.01% Brij-35, 10 mM MgCl2, and 1 mM EGTA). Recombinant GST-tagged JAK enzymes and a GFP-tagged STAT1 peptide substrate were obtained from Life Technologies.
# (§3) Serially or discretely diluted compounds were pre-incubated with each of the four JAK enzymes and the substrate in white 384-well microplates (Corning) at ambient temperature for 1 h. ATP was subsequently added to initiate the kinase reactions in 10 μL total volume, with 1% DMSO. The final enzyme concentrations for JAK1, 2, 3 and Tyk2 are 4.2 nM, 0.1 nM, 1 nM, and 0.25 nM respectively; the corresponding Km ATP concentrations used are 25 μM, 3 μM, 1.6 μM, and 10 μM; while the substrate concentration is 200 nM for all four assays. Kinase reactions were allowed to proceed for 1 hour at ambient temperature before a 10 μL preparation of EDTA (10 mM final concentration) and Tb-anti-pSTAT1 (pTyr701) antibody (Life Technologies, 2 nM final concentration) in TR-FRET dilution buffer (Life Technologies) was added. The plates were allowed to incubate at ambient temperature for 1 h before being read on the EnVision reader (Perkin Elmer). Emission ratio signals (520 nm/495 nm) were recorded and utilized to calculate the percent inhibition values based on DMSO and background controls.
# (§4) For dose-response analysis, percent inhibition data were plotted vs. compound concentrations, and IC50 values were determined from a 4-parameter robust fit model with the Prism software (GraphPad Software). Results were expressed as pIC50 (negative logarithm of IC50) and subsequently converted to pKi (negative logarithm of dissociation constant, Ki) using the Cheng-Prusoff equation.
# [2] = target: JAK3 (Homo sapiens (Human), UniProt P52333); assay: Biochemical JAK and Tyk2 Kinase Assays (LanthaScreen), JAK3; conditions: 1.6 μM ATP (Km); pIC50 converted to pKi by Cheng-Prusoff
# Protocol: as §1, §2, §3, §4
# [3] = system: IL-2 stimulated pSTAT5 in Tall-1 T cells; assay: Inhibition of IL-2 Stimulated pSTAT5 in Tall-1 T Cells; format: cell-based; conditions: Tall-1 human T cell line, IL-2 300 ng/mL, AlphaLisa
# Protocol: Assay 2: Inhibition of IL-2 Stimulated pSTAT5 in Tall-1 T Cells
# The potency of test compounds for inhibition of interleukin-2 (IL-2) stimulated STATS phosphorylation was measured in the Tall-1 human T cell line (DSMZ) using AlphaLisa. Because IL-2 signals through JAK1/3, this assay provides a measure of JAK1/3 cellular potency.
# Phosphorylated STATS was measured via the AlphaLISA SureFire Ultra pSTAT5 (Tyr694/699) kit (PerkinElmer). Human T cells from the Tall-1 cell line were cultured in a 37° C., 5% CO2 humidified incubator in RPMI (Life Technologies) supplemented with 15% Heat Inactivated Fetal Bovine Serum (FBS, Life Technologies), 2 mM Glutamax (Life Technologies), 25 mM HEPES (Life Technologies) and 1× Pen/Strep (Life Technologies). Compounds were serially diluted in DMSO and dispensed acoustically to empty wells. Assay media (phenol red-free DMEM (Life Technologies) supplemented with 10% FBS (ATCC)) was dispensed (4 μL/well) and plates shaken at 900 rpm for 10 mins. Cells were seeded at 45,000 cells/well in assay media (4 μL/well), and incubated at 37° C., 5% CO2 for 1 hour, followed by the addition of IL-2 (R&D Systems; final concentration 300 ng/mL) in pre-warmed assay media (4 μL) for 30 minutes. After cytokine stimulation, cells were lysed with 6 ul of 3× AlphaLisa Lysis Buffer (PerkinElmer) containing 1× PhosStop and Complete tablets (Roche). The lysate was shaken at 900 rpm for 10 minutes at room temperature (RT). Phosphorylated STATS was measured via the pSTAT5 AlphaLisa kit (PerkinElmer). Freshly prepared acceptor bead mixture was dispensed onto lysate (51) under green filtered <100 lux light. Plates were shaken at 900 rpm for 2 mins, briefly spun down, and incubated for 2 hrs at RT in the dark. Donor beads were dispensed (5 μL) under green filtered <100 lux light. Plates were shaken at 900 rpm for 2 minutes, briefly spun down, and incubated overnight at RT in the dark. Luminescence was measured with excitation at 689 nm and emission at 570 nm using an EnVision plate r reader (PerkinElmer) under green filtered <100 lux light.
# To determine the inhibitory potency of test compounds in response to IL-2, the average emission intensity of beads bound to pSTAT5 was measured in a human T cell line. IC50 values were determined from analysis of the inhibition curves of signal intensity versus compound concentration. Data are expressed as pIC50 (negative decadic logarithm IC50) values (mean±standard deviation).
# [4] = Aqueous Solubility Assay; conditions: PBS buffer pH 7.4; maximum upper limit 1,000 μM
# [5] = Solubility Assay in Organic Excipients; conditions: maximum upper limit 20,000 μM; for Solubility in MCT (mg/mL): medium chain triglycerides (MCT)
# Sequence of JAK1 (P23458 whole entry): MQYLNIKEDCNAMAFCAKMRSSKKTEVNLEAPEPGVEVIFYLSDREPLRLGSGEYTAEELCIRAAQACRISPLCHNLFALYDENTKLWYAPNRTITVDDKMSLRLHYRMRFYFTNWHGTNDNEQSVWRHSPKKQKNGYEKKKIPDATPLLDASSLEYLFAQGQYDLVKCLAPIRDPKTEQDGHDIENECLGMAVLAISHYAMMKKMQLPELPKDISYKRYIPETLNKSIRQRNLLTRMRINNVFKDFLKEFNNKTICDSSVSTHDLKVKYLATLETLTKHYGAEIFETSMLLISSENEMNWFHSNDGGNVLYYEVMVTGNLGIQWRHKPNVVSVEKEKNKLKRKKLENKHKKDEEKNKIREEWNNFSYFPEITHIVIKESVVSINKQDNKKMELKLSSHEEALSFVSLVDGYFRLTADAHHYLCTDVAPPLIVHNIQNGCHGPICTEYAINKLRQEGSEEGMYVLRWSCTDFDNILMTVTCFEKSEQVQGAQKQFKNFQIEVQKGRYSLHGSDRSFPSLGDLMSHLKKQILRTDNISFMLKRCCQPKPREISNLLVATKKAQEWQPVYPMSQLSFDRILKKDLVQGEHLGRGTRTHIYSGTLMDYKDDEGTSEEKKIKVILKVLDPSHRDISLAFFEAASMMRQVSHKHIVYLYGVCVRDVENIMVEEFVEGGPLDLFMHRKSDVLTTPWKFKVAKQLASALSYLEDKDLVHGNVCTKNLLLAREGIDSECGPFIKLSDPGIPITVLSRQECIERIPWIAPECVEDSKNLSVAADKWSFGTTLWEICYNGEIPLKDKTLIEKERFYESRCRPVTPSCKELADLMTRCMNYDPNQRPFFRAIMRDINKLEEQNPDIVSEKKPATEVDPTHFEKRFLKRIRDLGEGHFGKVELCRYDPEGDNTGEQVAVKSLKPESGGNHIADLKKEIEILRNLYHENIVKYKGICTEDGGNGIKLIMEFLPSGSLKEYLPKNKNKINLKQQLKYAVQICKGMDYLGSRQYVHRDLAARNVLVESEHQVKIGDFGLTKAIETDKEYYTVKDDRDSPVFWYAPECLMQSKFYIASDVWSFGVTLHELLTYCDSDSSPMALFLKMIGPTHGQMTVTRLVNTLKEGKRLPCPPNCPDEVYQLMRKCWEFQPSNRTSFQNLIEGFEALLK
# Sequence of JAK3 (P52333 whole entry): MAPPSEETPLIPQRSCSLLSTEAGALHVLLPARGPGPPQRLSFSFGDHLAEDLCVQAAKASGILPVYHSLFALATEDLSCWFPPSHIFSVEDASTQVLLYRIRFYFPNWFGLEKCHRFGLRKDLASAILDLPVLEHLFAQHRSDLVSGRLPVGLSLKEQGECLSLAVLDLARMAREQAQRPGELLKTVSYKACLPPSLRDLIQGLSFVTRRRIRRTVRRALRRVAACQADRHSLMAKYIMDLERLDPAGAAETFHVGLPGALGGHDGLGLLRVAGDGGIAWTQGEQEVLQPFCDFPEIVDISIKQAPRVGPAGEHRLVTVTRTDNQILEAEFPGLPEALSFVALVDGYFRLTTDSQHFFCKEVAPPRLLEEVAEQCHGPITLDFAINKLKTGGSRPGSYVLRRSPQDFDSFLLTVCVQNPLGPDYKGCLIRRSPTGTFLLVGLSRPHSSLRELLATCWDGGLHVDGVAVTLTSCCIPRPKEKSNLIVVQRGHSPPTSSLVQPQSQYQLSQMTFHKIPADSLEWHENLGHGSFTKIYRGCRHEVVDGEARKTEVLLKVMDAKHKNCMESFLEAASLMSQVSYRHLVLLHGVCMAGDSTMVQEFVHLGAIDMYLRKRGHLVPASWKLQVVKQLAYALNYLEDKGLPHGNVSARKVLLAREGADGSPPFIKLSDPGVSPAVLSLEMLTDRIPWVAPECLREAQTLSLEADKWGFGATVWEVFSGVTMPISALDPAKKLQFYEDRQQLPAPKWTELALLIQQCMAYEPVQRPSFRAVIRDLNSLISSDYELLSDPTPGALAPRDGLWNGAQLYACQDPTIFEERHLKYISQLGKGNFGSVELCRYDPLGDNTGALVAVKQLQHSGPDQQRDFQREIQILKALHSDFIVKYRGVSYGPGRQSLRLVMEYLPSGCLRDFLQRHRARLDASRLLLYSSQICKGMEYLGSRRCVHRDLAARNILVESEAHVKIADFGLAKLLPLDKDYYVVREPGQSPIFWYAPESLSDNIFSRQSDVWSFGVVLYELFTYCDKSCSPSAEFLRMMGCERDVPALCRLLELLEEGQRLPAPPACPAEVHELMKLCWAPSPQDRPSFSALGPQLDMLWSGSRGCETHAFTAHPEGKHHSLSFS
SMILES,JAK 1 (pKi) [1],JAK 3 (pKi) [2],Tall-1 IL2 pSTAT5 (pIC50) [3],Solubility at PH 7.4 (μmol) [4],Solubility in PEG400 (mg/mL) [5],Solubility in Diisopropyl adipate (mg/mL) [5],Solubility in MCT (mg/mL) [5],Solubility in Propylene glycol (mg/mL) [5]
"Cc1cc(Nc2cc(OCC3COC3)nc(N(C)[C@@H]3C[C@H]4CCC[C@@H](C3)N4C(=O)CC3CC3)n2)n[nH]1 [Compound 40, 2-cyclopropyl-1-((1R,3s,5S)-3-(methyl(4-((5-methyl-1H-pyrazol-3-yl)amino)-6-(oxetan-3-ylmethoxy)pyrimidin-2-yl)amino)-9-azabicyclo[3.3.1]nonan-9-yl)ethan-1-one]",A (A represents a pKi value ≥10 (Ki≤0.1 nM)),B (B represents a pKi value between 9 and 10 (Ki between 1 nM and 0.1 nM)),A (A represents a pIC50 value ≥8.0),D (D represents a value between 10 and 50),,,,
"CCS(=O)(=O)N1[C@@H]2CCC[C@H]1C[C@H](N(C)c1nc(Nc3cc(C)[nH]n3)cc(O[C@H]3CCOC3)n1)C2 [Compound 33, N^2-((1R,3s,5S)-9-(ethylsulfonyl)-9-azabicyclo[3.3.1]nonan-3-yl)-N2-methyl-N4-(5-methyl-1H-pyrazol-3-yl)-6-(((S)-tetrahydrofuran-3-yl)oxy)pyrimidine-2,4-diamine]",A (A represents a pKi value ≥10 (Ki≤0.1 nM)),B (B represents a pKi value between 9 and 10 (Ki between 1 nM and 0.1 nM)),,D (D represents a value between 10 and 50),B (B represents a value between 5 and 10),C (C represents a value below 5),C (C represents a value below 5),A (A represents a value above 10)
"Cc1cc(Nc2cc(C3CCOC3)nc(N(C)[C@@H]3C[C@H]4CCC[C@@H](C3)N4C(=O)CC3CC3)n2)n[nH]1 (stereo partly drawn) [Compound 7, 2-cyclopropyl-1-((1R,3s,5S)-3-(methyl(4-((5-methyl-1H-pyrazol-3-yl)amino)-6-(tetrahydrofuran-3-yl)pyrimidin-2-yl)amino)-9-azabicyclo[3.3.1]nonan-9-yl)ethan-1-one]",A (A represents a pKi value ≥10 (Ki≤0.1 nM)),C (C represents a pKi value between 8 and 9 (Ki between 10 nM and 1 nM)),A (A represents a pIC50 value ≥8.0),E (E represents a value below 10),,,,
"CCS(=O)(=O)N1[C@@H]2CCC[C@H]1C[C@H](N(C)c1nc(Nc3cc(C)[nH]n3)cc(O[C@@H]3CCOC3)n1)C2 [Compound 18, N^2-((1R,3s,5S)-9-(ethylsulfonyl)-9-azabicyclo[3.3.1]nonan-3-yl)-N2-methyl-N4-(5-methyl-1H-pyrazol-3-yl)-6-(((R)-tetrahydrofuran-3-yl)oxy)pyrimidine-2,4-diamine]",A (A represents a pKi value ≥10 (Ki≤0.1 nM)),B (B represents a pKi value between 9 and 10 (Ki between 1 nM and 0.1 nM)),,D (D represents a value between 10 and 50),B (B represents a value between 5 and 10),B (B represents a value between 5 and 10),C (C represents a value below 5),B (B represents a value between 5 and 10)
"Cc1cc(Nc2cc(C3CCCO3)nc(N(C)[C@@H]3C[C@H]4CCC[C@@H](C3)N4CC(=O)N3CCCC3)n2)n[nH]1 (stereo partly drawn) [Compound 16, 2-((1R,3s,5S)-3-(methyl(4-((5-methyl-1H-pyrazol-3-yl)amino)-6-(tetrahydrofuran-2-yl)pyrimidin-2-yl)amino)-9-azabicyclo[3.3.1]nonan-9-yl)-1-(pyrrolidin-1-yl)ethan-1-one]",A (A represents a pKi value ≥10 (Ki≤0.1 nM)),C (C represents a pKi value between 8 and 9 (Ki between 10 nM and 1 nM)),,A (A represents a value above 500),C (C represents a value below 5),C (C represents a value below 5),C (C represents a value below 5),C (C represents a value below 5)
"CCC(=O)N1[C@@H]2CCC[C@H]1CC(N(C)c1nc(Nc3cc(C)[nH]n3)cc(OC3CCOC3)n1)C2 (stereo partly drawn) [Compound 46, 1-((1R,3s,5S)-3-(methyl(4-((5-methyl-1H-pyrazol-3-yl)amino)-6-((tetrahydrofuran-3-yl)oxy)pyrimidin-2-yl)amino)-9-azabicyclo[3.3.1]nonan-9-yl)propan-1-one]",A (A represents a pKi value ≥10 (Ki≤0.1 nM)),B (B represents a pKi value between 9 and 10 (Ki between 1 nM and 0.1 nM)),A (A represents a pIC50 value ≥8.0),D (D represents a value between 10 and 50),,,,
"Cc1cc(Nc2cc(C3CCOCC3)nc(N(C)[C@@H]3C[C@H]4CCC[C@@H](C3)N4C(=O)CC3CC3)n2)n[nH]1 [Compound 4, 2-cyclopropyl-1-((1R,3s,5S)-3-(methyl(4-((5-methyl-1H-pyrazol-3-yl)amino)-6-(tetrahydro-2H-pyran-4-yl)pyrimidin-2-yl)amino)-9-azabicyclo[3.3.1]nonan-9-yl)ethan-1-one]",A (A represents a pKi value ≥10 (Ki≤0.1 nM)),B (B represents a pKi value between 9 and 10 (Ki between 1 nM and 0.1 nM)),,E (E represents a value below 10),C (C represents a value below 5),C (C represents a value below 5),C (C represents a value below 5),C (C represents a value below 5)
"CCS(=O)(=O)N1[C@@H]2CCC[C@H]1C[C@H](N(C)c1nc(Nc3cc(C)[nH]n3)c(F)c(C3CCOC3)n1)C2 (stereo partly drawn) [Compound 44, N2-((1R,3s,5S)-9-(ethylsulfonyl)-9-azabicyclo[3.3.1]nonan-3-yl)-5-fluoro-N2-methyl-N4-(5-methyl-1H-pyrazol-3-yl)-6-(tetrahydrofuran-3-yl)pyrimidine-2,4-diamine]",A (A represents a pKi value ≥10 (Ki≤0.1 nM)),C (C represents a pKi value between 8 and 9 (Ki between 10 nM and 1 nM)),,E (E represents a value below 10),,,,
